In test [1] the test system is Per1/2. The experiment in a line: Sleep deprivation, Per1/2 expression within the SCN. Format: in vivo. As to conditions: sleep deprivation decreases Per1/2 expression.
Another test has as its system Per2::Luc U2OS cells. The experiment in a line: Per2::Luc cell based circadian assay. Conditions: for circadian period length: Per2::Luc U2OS cells, dose response. How it is done: U2OS cells stably transfected with a Per2::Luc reporter were cultured in DMEM supplemented with 10% FBS. For siRNA- and drug-based experiments, cells were seeded at 5,000 per well into white 384 well plates and transfected with 20 nM siRNA the next day. 2 days later, the cells were synchronized with 100 nM dexamethasone and the medium was replaced with phenol-red free DMEM supplemented with B-27 and 100 µM luciferin potassium salt, requisite drugs formulated in DMSO as a 1000× stock was added, and then sealed. Per2::Luc rhythms were recorded from a BMG Labtech Fluostar Omega plate reader maintained at 36° C. and readings taken from each well every hour. Data were then analysed using either Multicycle or Brass rhythm analysis software.
Period2::Luciferase (Per2::Luc) stable U2OS transfects were cultured, as described above. A Greiner Bio-One 384 Well Plate (Polystyrene, F-bottom), was then seeded at 6000 cells per 50 μl well. Following a 24 hour period, the cells were treated with 0.1% dexamethasone, a glucocorticoid hormone analogue known to reset intracellular circadian rhythms, for 1 hour. Subsequently, the dexamethasone-containing medium was removed, the cells were washed with PBS and luciferin and test drug containing medium was added. The cells were then assayed for luminescence over a period of 96 hours in the BMG FLUOstar OPTIMA Microplate Reader to observe the periodicity and amplitude of the luminescence values.

Test [2] relates to STAR-PROM plasmid library. The experiment in a line: STAR-PROM transcription factor screening in U2OS cells. Conditions: siFos. Format: cell-based. How it is done:
This was conducted as previously reported in Gerber et al., Cell. […] Briefly, U2OS cells were cultured in 6-well plates and transfected with 1 ug of the STAR-PROM plasmid library (library structure as in above reference). RNA was extracted at set time points and sequenced for the barcoded luciferase constructs and analysed with Galaxy (https://use.galaxy.org).

The subject of test [3] is intracellular levels of cAMP. Description: cAMP GloSensor assay in U2OS cells. Type of test: cell-based. The method, then: The GloSensor™ cAMP Assay (Promega) was used for detecting changes in the intracellular levels of cAMP. Initially, a Greiner Bio-One 96 Well Plate (white, TC treated) was seeded at 8000 cells per 100 μl well, as described above. After 24 hours, the cells were transfected with the pGloSensor™ cAMP Plasmid using the Viafect transfection reagent as above. Between 24 and 48 hours later, allowing for the accumulation of the biosensor, the medium in the 96 well plate was changed to C02-Independent Medium supplemented with GlutaMAX™ (Life Technologies), 10% fetal bovine serum and 2% GloSensor™ cAMP Reagent. The plate was then stood for 2 hours at room temperature to equilibrate. Following the incubation period, the cells were treated with relevant drugs and their luminescence values were measured after 20 minutes in the BMG FLUOstar OPTIMA Microplate Reader, with forskolin as a positive control, and DMSO as a negative control.

A further test deals with CRE::Luc reporter. Description: CRE-Luc luciferase assay in U2OS cells. Format: cell-based. How it is done: At 60-80% confluence and >90% viability, the U2OS cells in the T-75 flask were washed twice with 6 ml phosphate-buffered saline (PBS) and subsequently treated with 4 ml of TrypLE™ Express trypsin replacement solution for 10 minutes. A Greiner Bio-One 96 Well Plate (white, TC treated), was then seeded at 8000 cells per well. Following 24 hours, the cells were transfected at 50-70% confluency with CRE-luc Vector generated in-house with Viafect transfection reagent at 1:4 ratio (100 ng DNA/well) following manufacturers recommendations.
24 hours after transfection, the medium in the 96 well plate was changed to a serum-free medium with 1 mM luciferin. The cells were then incubated in serum starvation conditions for 6-8 hours, this was optimised to yield the greatest signal strength and lowest noise when assayed with forskolin control. Following the incubation period, the CRE-Luc U2OS cells were treated with the appropriate drug and their luminescence values were measured after 6 hours in the BMG FLUOstar OPTIMA Microplate Reader. […] Unless stated otherwise, forskolin was used as a positive control, and 1% DMSO was used as a negative control.

A further test has as its system Per1. Description: Per1 mRNA levels in U2OS cells by qPCR. Conditions: U2OS cells, qPCR, concentration not given. Type of test: cell-based. How it is done:
(§1) Total RNA was extracted using the microRNeasy column method (Qiagen, Hilden, Germany). Quality and quantity of RNA were measured using an Agilent Bioanalyzer and a Nanodrop1000 (Thermo Fisher Scientific, Waltham, MA USA), respectively.
(§2) RNA samples were prepared as described for microarray hybridisation. cDNA was synthesized with a qScript cDNA synthesis kit (Quanta Biosciences, Gaithersburg, MD), and quantitative PCR (qPCR) was conducted with Sybr green I and an SDS7700 thermal cycler (Applied Biosystems, Foster City, CA). Relative quantification of transcript levels was done as described previously (Peirson et al., Nucleic Acids Res. 2003 Jul. 15; 31(14):e73.). The geometric mean of a minimum of three housekeeping genes was used for normalization (Gapdh, ActB, GusB and Rps9 for example).
(§3) Cells from the U2OS (HTB-96) line were obtained, tested and identified. The cells were cultured in T-75 flasks, in Dulbecco's modified Eagle medium (DMEM) supplemented with 10% foetal bovine serum (FBS) and 1% penicillin-streptomycin (P/S) at 37° C. in a humidified atmosphere at 5% CO2. The cells were subcultured every 2 to 4 days in a 1:2 to 1:6 ratio, in accordance with the ATCC recommendations. The cells were counted using a haemocytometer, and their viability in a culture was maintained at above 95%, measured with a Presto Blue exclusion assay according to the manufacturer's specifications. Cells were transfected with siRNAs (typically at 50 nM concentrations, sequences as previously listed), the CRE::Luc (pGL4.29[luc2P/CRE/Hygro] Vector, encoding Luc2P […] under the control of a strong cAMP response element (CRE) promoter containing 3 CRE elements within its sequence; Promega) reporter vector or cAMP-GLOSensor plasmid (Promega) as per manufacturer's instructions using either Lipofectamine RNAimax (Invitrogen) or Lipofectamine3000 (Invitrogen).
Background: In qPCR the cycle at which signal appears reflects the starting amount.

A further test concerns Per2. Description: Per2 mRNA levels in U2OS cells by qPCR. Conditions: U2OS cells, qPCR, concentration not given. Format: cell-based. How it is done: as §1, §2, §3
In test [4] the test system is C57Bl/6 mice. Description: Phase shifting of circadian activity by drug (running wheel). Format: in vivo. Conditions: administered at CT22, absence of a light pulse. The method, then: Animals were housed under a reversed 12:12 LD cycle (400 lux from white LED lamps) with food and water ad libitum. For phase-shifting studies, C57Bl/6 mice were maintained on running wheels in light tight chambers on a 12:12 LD cycle (400 lux from white LED lamps) and injected with drug at the indicated time points. The drugs were formulated in a vehicle consisting of 5% Koliphor-HS15 (Sigma-Aldrich, UK) 5% Cyclodextran (Sigma-Aldrich, UK) in 0.9% saline. This vehicle was warmed to 37° C. and the indicated drugs kept at a 100× stock in DMSO and mixed at the appropriate concentration to be administered at approximately 300 ul intraperitoneal injection (n=6 to 10). Where the time point of injection was in the dark, the procedure was conducted under dim red light. Where measuring phase-shifting, the mice were then placed in DD and allowed to free run for 14 days in DD, running wheel activity data was collected and analysed on Clocklab (Actimetrics, Wilmette, IL). For jet-lag studies, mice were maintained on running wheels in light tight chambers on a 12:12 LD cycle (400 lux from white LED lamps) and injected with drugs as above at ZT6 and the LD cycle was shifted 6 hours in advance. The onset of activity on each day was used to measure phase relative to the LD cycle.
Phase Shifting: C57Bl/6 male mice (80 days or older) were maintained on running wheels in light tight chambers on a 12:12 LD cycle (100 lux from white LED lamps) on stable entrainment, were released in complete darkness. At set times as indicated in the experiments, the animals received an intraperitoneal injection (300 ul) of drug constituted in sterile saline with 5% Cyclodextrin (Sigma-Aldrich) and 5% Koliphor (Sigma-Aldrich) and then allowed to free run in DD, running wheel activity data were collected and analysed on Clocklab (Actimetrics, Wilmette, IL).

The test system of test [5] is C57Bl/6 mice. The experiment in a line: Phase shifting of circadian activity in response to a light pulse with drug. Type of test: in vivo. Conditions: 1 mg/kg intraperitoneal before 30 min 400 lux light pulse at CT22. The method, then: Animals were maintained in a 12 h light (white) 12 h dark (grey) cycle and vehicle was administered just before a 30 min 400 lux light pulse (white bar) at time CT 22 (or 10 hours after lights off). All light cues were then removed to allow the animals free running clock to express. A gap in the lines on the day after the light pulse was administered indicates a phase shift.
Animals were maintained in a 12 h light (white) 12 h dark (grey) cycle and IB-MECA (1 mg/kg) was administered just before a 30 min 400 lux light pulse (white bar) at time CT 22 (or 10 hours after lights off).
Animals were housed under a reversed 12:12 LD cycle (400 lux from white LED lamps) with food and water ad libitum. For phase-shifting studies, C57Bl/6 mice were maintained on running wheels in light tight chambers on a 12:12 LD cycle (400 lux from white LED lamps) and injected with drug at the indicated time points. The drugs were formulated in a vehicle consisting of 5% Koliphor-HS15 (Sigma-Aldrich, UK) 5% Cyclodextran (Sigma-Aldrich, UK) in 0.9% saline. […] Where measuring phase-shifting, the mice were then placed in DD and allowed to free run for 14 days in DD, running wheel activity data was collected and analysed on Clocklab (Actimetrics, Wilmette, IL). […]

The subject of test [6] is Per1/2. The experiment in a line: Sleep deprivation, Per1/2 within the cortex. Format: in vivo. As to conditions: data not shown.

Consider `CCNC(=O)[C@H]1O[C@@H](n2cnc3c(N)nc(NCCc4ccc(CCC(=O)O)cc4)nc32)[C@H](O)[C@@H]1O.Cl` [CGS21680, 3-[4-[2-[[6-amino-9-[(2R,3R,4S,5S)-5-(ethylcarbamoyl)-3,4-dihydroxy-oxolan-2-yl]purin-2-yl]amino]ethyl]phenyl]propanoic acid], for which the “Per1/2 expression within the SCN” value with Per1/2 [1] was “increased Per1/2 expression”.

For the compound `Nc1nc2ccc(Cl)cc2c2nc(-c3ccco3)nn12` [CGS15943, 9-chloro-2-(furan-2-yl)-[1,2,4]triazolo[1,5-c]quinazolin-5-amine], the “period lengthening effect after knockdown of adenosine receptors” value in the test on Per2::Luc U2OS cells (A1, A2A, A2B adenosine receptors in U2OS cells knocked down using siRNA) is “lost”. Further, in [2], the “response of clone3 after siRNA-mediated silencing of Fos” value is on record as “significantly reduced”.

Consider `CCn1c(=O)c2c(nc(/C=C/c3ccc(OC)c(OC)c3)n2C)n(CC)c1=O` [Istradefylline, 8-[(E)-2-(3,4-dimethoxyphenyl)vinyl]-1,3-diethyl-7-methyl-3,7-dihydro-1H-purine-2,6-dione], for which, in the test on Per2::Luc U2OS cells, the circadian period length entry is recorded as “increased circadian period length in a dose dependent manner”.

As for `CNC(=O)[C@H]1O[C@@H](n2cnc3c(NCc4cccc(I)c4)ncnc32)[C@H](O)[C@@H]1O` [IB-MECA, 1-Deoxy-1-[6-[((3-Iodophenyl)methyl)amino]-9H-purin-9-yl]-N-methyl-β-D-ribofuranuronamide], in the test with Per2::Luc U2OS cells, the circadian period length result is recorded as “dose-dependent period length increases”. Moreover, the “amplitude of the cellular clock” value in the test on Per2::Luc U2OS cells (Per2::Luciferase construct, U2OS cells) is “increases in period and amplitude”. Moreover, in [3], the cAMP levels result is given as “concurrent increase”. In addition, the “CREB-driven transcription (CRE::Luc reporter)” value in the test on CRE::Luc reporter is listed as “activation”. In the test with Per1, the “Per1 mRNA levels / expression” value is recorded as “elevated”. Further, the “Per2 mRNA levels / expression” value with Per2 was “elevated”. The “phase shift of circadian activity” value with C57Bl/6 mice [4] is listed as “elicited a phase delay”. The “phase advance induced by light pulse” value in the test on C57Bl/6 mice [5] is “phase advance was lost”.

In the case of `Nc1nc(NCCc2ccc(O)cc2)nc2nc(-c3ccco3)nn12` [ZM241385, 4-(2-(7-amino-2-(furan-2-yl)-[1,2,4]triazolo[1,5-a][1,3,5]triazin-5-ylamino)ethyl)phenol], in the test on Per2::Luc U2OS cells, the circadian period length entry is on record as “increased circadian period length in a dose dependent manner”.

On to `O=C(Cc1ccccc1)Nc1nc2ccc(Cl)cc2c2nc(-c3ccco3)nn12` [MRS1220, 9-Chloro-2-(2-furanyl)-5-((phenylacetyl)amino)-[1,2,4]triazolo[1,5-c]quinazoline], for which the circadian period length result with Per2::Luc U2OS cells is “increased circadian period length in a dose dependent manner”.

Regarding `CC#C[C@]1(O)CC[C@H]2[C@@H]3CCC4=CC(=O)CCC4=C3[C@@H](c3ccc(N(C)C)cc3)C[C@@]21C` [mifepristone], the “sleep deprivation-induced increase of Per1/2 within the cortex” value with Per1/2 [6] is “blunted this response”.

The values are drawn from patent US11931374B2, “Adenosine receptor modulators for the treatment of circadian rhythm disorders” (OXFORD UNIVERSITY INNOVATION LIMITED, priority 2016, dated 2024).
